Experimental data as given in ChEMBL document CHEMBL1141795, “Aspirochlorine class compounds from Aspergillus flavus inhibit azole-resistant Candida albicans” (J Nat Prod, 2005).

Key:
[1] = tested on: CCRF-CEM; assay: Cytotoxicity against human CEM cells after 96 hrs; format: functional, cell-based
[2] = tested on: Candida albicans; assay: Antifungal activity against azole-resistant Candida albicans 99-788; format: functional, organism-based
[3] = in vitro; conditions: human
Description: Therapeutic index, IC50 for human CEM cells to IC 50 for azole-resistant Candida albicans 99-788

[4] = CEM cells (versus azole-resistant Candida albicans 99-788)

Row | Compound | IC50 [1] | IC50 [2] | selectivity ratio ([3]; ccrf-cem) | selectivity ratio [3, 4]
1 | C[C@@H]1[C@H](O)[C@@H](C)/C=C/C=C/C=C/C=C/C=C/C=C/C=C/[C@H](O[C@@H]2O[C@H](C)[C@@H](O)[C@H](N)[C@@H]2O)C[C@@H]2O[C@](O)(C[C@@H](O)C[C@@H](O)[C@H](O)CC[C@@H](O)C[C@@H](O)CC(=O)O[C@H]1C)C[C@H](O)[C@H]2C(=O)O [AMPHOTERICIN B] | 160 µM | 160 nM | 1000 | 
2 | COC1=CC(=O)C[C@@H](C)[C@]12Oc1c(Cl)c(OC)cc(OC)c1C2=O [GRISEOFULVIN] | 10 µM | > 28000 nM |  | 
3 | CON1C(=O)[C@H]2NC(=O)[C@]13Oc1cc(O)c(Cl)cc1[C@@H]3SS2 [ASPIROCHLORINE] | 0.58 µM | 28 nM |  | 20
4 | CC(C)C[C@@H]1C(=O)N[C@@H](Cc2c[nH]c3ccccc23)C(=O)N1C | > 31 µM | > 31000 nM |  | 
5 | CN1C(=O)[C@]23CC4=CC=C[C@H](O)[C@H]4N2C(=O)[C@@]1(CO)SS3 [GLIOTOXIN] | 0.15 µM | 3100 nM |  | 
6 | CON1C(=O)C2NC(=O)[C@@]13Oc1cc(O)c(Cl)cc1[C@@H]3SSSS2 [TETRATHIOASPIROCHLORINE] | 4.2 µM | 83 nM |  | 50
